Test [1] deals with T1, recombinant human LTA4 hydrolase (Homo sapiens, UniProt P09960).
T1 construct: A human LTA4 hydrolase full-length cDNA clone (NM_000895) was purchased from OriGene Technologies; own knowledge that pDEST17 adds an N-terminal 6xHis, consistent with the Ni-NTA purification) (N); made in house; host or cells: Escherichia coli BL21-AI
T1 sequence (P09960 1-611): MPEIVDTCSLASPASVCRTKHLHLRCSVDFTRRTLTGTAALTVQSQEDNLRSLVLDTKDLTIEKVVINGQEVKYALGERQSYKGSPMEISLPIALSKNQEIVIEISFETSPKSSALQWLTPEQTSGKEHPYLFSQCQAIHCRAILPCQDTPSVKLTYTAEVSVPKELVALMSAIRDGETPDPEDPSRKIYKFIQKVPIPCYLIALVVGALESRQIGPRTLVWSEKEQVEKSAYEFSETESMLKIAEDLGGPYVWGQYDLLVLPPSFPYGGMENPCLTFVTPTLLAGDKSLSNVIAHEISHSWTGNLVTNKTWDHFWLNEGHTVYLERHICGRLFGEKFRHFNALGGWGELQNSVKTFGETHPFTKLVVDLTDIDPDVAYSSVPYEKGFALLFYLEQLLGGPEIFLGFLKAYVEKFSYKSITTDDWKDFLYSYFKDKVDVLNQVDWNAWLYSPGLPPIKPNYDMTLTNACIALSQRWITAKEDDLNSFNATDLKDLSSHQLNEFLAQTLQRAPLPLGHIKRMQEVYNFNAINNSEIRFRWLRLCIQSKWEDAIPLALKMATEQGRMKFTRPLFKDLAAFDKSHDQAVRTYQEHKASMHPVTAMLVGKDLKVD
Description: In vitro assay testing inhibitory activity against purified recombinant human LTA4 hydrolase. It counts as biochemical. Conditions: LTB4 formation; table does not say which of the two described assays (enzyme or human whole blood). The text has this:
(1) In vitro assay testing inhibitory activity against purified recombinant human LTA4 hydroase. A human LTA4 hydrolase full-length cDNA clone (NM_000895) was purchased from OriGene Technologies (Rockville, Md.). The gene was amplified by polmerase chain reaction and transferred via pDONR201 into the bacterial expression vector pDEST17 by recombination (both plasmids from Invitrogen, Carlsbad, Calif.). The resulting construct was transformed into Escherichia coli BL21-AI (Invitrogen), and expression was induced by chemical induction with arabinose. The recombinant enzyme was purified by chromatography on an FPLC system (Amersham Biosciences, Uppsala, Sweden) using immobilized metal affinity chromatography (Ni-NTA Superflow, Qiagen, Hilden, Germany) and anion exchange chromatography (MonoQ HR 10/10, Amersham Biosciences).
The compounds of the invention were incubated in a series of dilutions with 200 nM of recombinant enzyme in assay buffer (100 mM Tris-HCl, 100 mM NaCl, 5 mg/ml fatty-acid free BSA, 10% DMSO, pH 8.0) for 10 min at room temperature to allow binding between LTA4 hydrolase and the inhibitors. LTA4 was prepared by alkaline hydrolysis of LTA4 methyl ester (Biomol, Plymouth Meeting, Pa., or Cayman Chemicals, Ann Arbor, Mich.). A solution of 10 μg of the ester was dried under a nitrogen stream and redissolved in 60 μl of a solution of 80% acetone and 20% 0.25 M NaOH. After incubation for 40 min at room temperature the resulting approximately 500 μM tock of LTA4 was kept at −80° C. for no more than a few days prior to use.
Immediately before the assay, LTA4 was diluted to a concentration of 10 μM in assay buffer (without DMSO) and added to the reaction mixture to a final concentration of 2 μM to initiate the enzyme reaction. After incubation for 120 sec at room temperature, the reaction was stopped by adding 2 volumes of chilled quenching buffer, containing acetonitril with 1% acetic acid and 225 nM LTB4-d4 (Biomol). The samples were then kept at 4° C. overnight to complete protein precipitation and centrifuged for 15 min at 1800 g. LTB4 formed was measured by LC-MS/MS using LTB4-d4 as an internal standard and an external LTB4 standard (Biomol) as reference. Based on the amounts of LTB4 found at each inhibitor concentration, a dose-response curve was fitted to the data and an IC50 value was calculated.

Another test concerns colitis symptoms. To be noted: eight weeks of treatment, primate model of spontaneous colitis; cited from earlier work.
For test [2], the target named is T2, LTA4H (Mus musculus, UniProt P24527).
T2 construct: host or cells: mouse blood (ex vivo, after oral dosing)
T2 sequence (P24527 1-611): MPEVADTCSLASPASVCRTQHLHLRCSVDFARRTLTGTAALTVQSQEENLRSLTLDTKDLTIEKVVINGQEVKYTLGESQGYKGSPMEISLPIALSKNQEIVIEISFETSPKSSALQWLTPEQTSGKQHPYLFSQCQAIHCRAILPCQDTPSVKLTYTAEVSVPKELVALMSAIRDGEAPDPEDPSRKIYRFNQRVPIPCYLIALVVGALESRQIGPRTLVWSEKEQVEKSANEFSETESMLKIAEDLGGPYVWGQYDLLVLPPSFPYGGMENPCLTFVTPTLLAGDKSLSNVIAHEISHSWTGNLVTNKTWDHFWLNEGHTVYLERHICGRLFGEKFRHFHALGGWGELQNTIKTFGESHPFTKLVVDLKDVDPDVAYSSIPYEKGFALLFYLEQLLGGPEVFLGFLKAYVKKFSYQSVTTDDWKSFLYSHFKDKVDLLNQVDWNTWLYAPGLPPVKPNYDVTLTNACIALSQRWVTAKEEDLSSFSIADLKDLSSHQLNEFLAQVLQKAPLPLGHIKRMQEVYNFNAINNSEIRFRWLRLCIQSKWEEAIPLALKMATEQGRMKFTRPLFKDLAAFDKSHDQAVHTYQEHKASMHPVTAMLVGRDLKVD
Conditions: oral administration, mouse blood ex vivo; cited from earlier work.

Test [3] concerns the target T3, LTA4H (Rattus norvegicus, UniProt P30349).
T3 construct: and in rat peritoneum in vivo; host or cells: rat peritoneum (in vivo, after oral dosing)
T3 sequence (P30349 1-611): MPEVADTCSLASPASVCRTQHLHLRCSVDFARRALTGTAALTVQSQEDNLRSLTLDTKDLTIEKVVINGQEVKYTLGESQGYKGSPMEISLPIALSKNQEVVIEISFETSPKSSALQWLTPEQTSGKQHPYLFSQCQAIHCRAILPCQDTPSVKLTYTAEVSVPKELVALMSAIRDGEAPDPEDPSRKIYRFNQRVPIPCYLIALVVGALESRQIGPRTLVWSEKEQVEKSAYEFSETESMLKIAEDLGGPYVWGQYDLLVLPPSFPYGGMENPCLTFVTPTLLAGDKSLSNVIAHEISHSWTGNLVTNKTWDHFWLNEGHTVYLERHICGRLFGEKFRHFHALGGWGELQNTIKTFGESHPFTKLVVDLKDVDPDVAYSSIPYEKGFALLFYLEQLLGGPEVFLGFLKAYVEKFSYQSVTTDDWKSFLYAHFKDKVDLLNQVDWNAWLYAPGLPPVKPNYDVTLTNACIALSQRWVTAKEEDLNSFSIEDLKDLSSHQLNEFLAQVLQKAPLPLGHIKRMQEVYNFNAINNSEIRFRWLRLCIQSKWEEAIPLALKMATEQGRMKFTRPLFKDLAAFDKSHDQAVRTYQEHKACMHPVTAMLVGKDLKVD
To be noted: oral administration, rat peritoneum in vivo; cited from earlier work.

Counter-ions that a name gives are not always drawn.

On to `c1cnn(-c2ccc(OCCN3CCCCC3)cc2)c1` [Example 1, 1-[2-(4-Pyrazol-1-yl-phenoxy)-ethyl]-piperidine], for which the IC50 (in general, the concentration that gives 50% inhibition) in test [1] lay within 5 to 20 µM.
In the case of `O=Cc1cccn1-c1ccc(OCCN2CCCCC2)cc1` [Example 10, 1-[4-(2-Piperidin-1-yl-ethoxy)-phenyl]-1H-pyrrole-2-carbaldehyde], in test [1], the IC50 was under 5 µM.
With `Cc1cc(C)n(-c2ccc(OCCN3CCCCC3)cc2)n1` [Example 3, 1-{2-[4-(3,5-Dimethyl-pyrazol-1-yl)-phenoxy]-ethyl}-piperidine], the IC50 in test [1] was under 5 µM.
On the same count and under the same terms, with `Brc1cccn1-c1ccc(OCCN2CCCCC2)cc1` [Example 9, 1-{2-[4-(2-Bromo-pyrrol-1-yl)-phenoxy]-ethyl}-piperidine] the figure was under 5 µM; with `c1ccn(-c2ccc(OCCN3CCCCC3)cc2)c1` [Example 8, 1-[2-(4-Pyrrol-1-yl-phenoxy)-ethyl]-piperidine], under 5 µM.
With `CN(CCCOc1ccc(Cc2ccccc2)cc1)CCC(=O)O.Cl` [SC57461], the colitis symptoms result in the test on colitis symptoms is reported as “significantly improved colitis symptoms”. In addition, the “inhibition of ionophore-induced LTB4 production” value at LTA4H [2] and on LTA4H [3] was “inhibition of ionophore-induced LTB4 production” each time.
For `Cc1ccn(-c2ccc(OCCN3CCCCC3)cc2)n1` [Example 2, 1-{2-[4-(3-Methyl-pyrazol-1-yl)-phenoxy]-ethyl}-piperidine], the IC50 in test [1] lay within 5 to 20 µM.
Still for that read-out and setting: with `Cc1c(C(F)F)cnn1-c1ccc(OCCN2CCCCC2)cc1` [Example 6, 1-{2-[4-(4-Difluoromethyl-5-methyl-pyrazol-1-yl)-phenoxy]-ethyl}-piperidine] the figure was 5 to 20 µM.
With `FC(F)(F)c1ccnn1-c1ccc(OCCN2CCCCC2)cc1` [Example 4, 1-{2-[4-(5-Trifluoromethyl-pyrazol-1-yl)-phenoxy]-ethyl}-piperidine], the IC50 in test [1] was 5 to 20 µM.
`c1ccn(-c2ccc(OC[C@H]3CCCN3)cc2)c1` [Example 7, 1-[4-((R)-1-Pyrrolidin-2-ylmethoxy)-phenyl]-1H-pyrrole hydrochloride]: the IC50 in test [1] is under 5 µM.
Same read-out and setting: the figure for `Cc1cc(C(F)(F)F)n(-c2ccc(OCCN3CCCCC3)cc2)n1` [Example 5, 1-{2-[4-(3-Methyl-5-trifluoromethyl-pyrazol-1-yl)-phenoxy]-ethyl}-piperidine] is under 5 µM.

(Values after patent US8115005B2, “Pyrazolylphenyl and pyrrolylphenyl inhibitors of LTA4H for treating inflammation” (Decode Genetics EHF., priority 2006, dated 2012).)
